We go through 30 compounds from patent publication US12331059B2 (priority 2019, dated 2025).

In one assay the test system is MV4-11 cells. Nature of the assay: cells. Conditions: Homo sapiens, MV4-11, 48 h. In kind it is cell-based.
A further assay has as its system U937 leukemia cells. On the set-up: species or system NSG mice. Conditions: mouse; for The proportion of human leukemia cells in bone marrow of mice / The proportion of human leukemia cells in peripheral blood of mice / The proportion of human leukemia cells in spleen of mice: in vivo.

Usually IC50 stands for the concentration at which inhibition is half-maximal. On to `Cc1ncsc1-c1ccc(CNC(=O)C2CC(O)CN2C(=O)C(NC(=O)CCCCNC(=O)C23CC4CC(C2)C2(OOC5(CCCCC5)O2)C(C4)C3)C(C)(C)C)cc1` (stereo not drawn) [CL-30], for which half-maximal inhibition in the assay with MV4-11 cells (IC50) required 8.31 µM.
Regarding `Cc1ncsc1-c1ccc(CNC(=O)C2CC(O)CN2C(=O)C(NC(=O)CCCNC(=O)CC2OC3OC4(C)CCC5C(C)CCC(C2C)C35OO4)C(C)(C)C)cc1` (stereo not drawn) [CL-13], half-maximal inhibition in the assay with MV4-11 cells (IC50) required 3.1 µM.
In the case of `Cc1ncsc1-c1ccc(CNC(=O)C2CC(O)CN2C(=O)C(NC(=O)CCNC(=O)C23CC4CC(C2)C2(OOC5(CCCCC5)O2)C(C4)C3)C(C)(C)C)cc1` (stereo not drawn) [CL-32], the IC50 in the assay with MV4-11 cells came out at 3.38 µM.
`Cc1ncsc1-c1ccc(CNC(=O)C2CC(O)CN2C(=O)C(NC(=O)CCCCNC(=O)OCCCC2OC3OC4(C)CCC5C(C)CCC(C2C)C35OO4)C(C)(C)C)cc1` (stereo not drawn) [CL-6] gave a concentration for half-maximal inhibition (IC50) with MV4-11 cells of 5.3 µM.
Same read-out and setting: the figure for `Cc1ncsc1-c1ccc(CNC(=O)C2CC(O)CN2C(=O)C(NC(=O)CCOCCOCCOCCNC(=O)CC2OC3OC4(C)CCC5C(C)CCC(C2C)C35OO4)C(C)(C)C)cc1` (stereo not drawn) [CL-11] is 29.6 µM; for `Cc1ncsc1-c1ccc(CNC(=O)C2CC(O)CN2C(=O)C(NC(=O)Cc2ccc(CNC(=O)OCCCC3OC4OC5(C)CCC6C(C)CCC(C3C)C46OO5)cc2)C(C)(C)C)cc1` (stereo not drawn) [CL-7] it is 0.46 µM; for `Cc1ncsc1-c1ccc(CNC(=O)C2CC(O)CN2C(=O)C(NC(=O)CCOCCOCCOCCNC(=O)OCCC2OC3OC4(C)CCC5C(C)CCC(C2C)C35OO4)C(C)(C)C)cc1` (stereo not drawn) [CL-19] it is 0.5 µM.
On the same count and under the same terms, then `Cc1ncsc1-c1ccc(CNC(=O)C2CC(O)CN2C(=O)C(NC(=O)CCOCCOCCNC(=O)OCCC2OC3OC4(C)CCC5C(C)CCC(C2C)C35OO4)C(C)(C)C)cc1` (stereo not drawn) [CL-18], with 2.66 µM; and `Cc1ncsc1-c1ccc(CNC(=O)C2CC(O)CN2C(=O)C(NC(=O)CCOCCNC(=O)OCCC2OC3OC4(C)CCC5C(C)CCC(C2C)C35OO4)C(C)(C)C)cc1` (stereo not drawn) [CL-17], with 0.3 µM; and `Cc1ncsc1-c1ccc(CNC(=O)C2CC(O)CN2C(=O)C(NC(=O)Cc2ccc(CNC(=O)C34CC5CC(C3)C3(OOC6(CCCCC6)O3)C(C5)C4)cc2)C(C)(C)C)cc1` (stereo not drawn) [CL-31], with 3.04 µM.
Still for that read-out and setting: the figure for `Cc1ncsc1-c1ccc(CNC(=O)C2CC(O)CN2C(=O)C(NC(=O)CCOCCNC(=O)CC2OC3OC4(C)CCC5C(C)CCC(C2C)C35OO4)C(C)(C)C)cc1` (stereo not drawn) [CL-9] is 4.67 µM; for `Cc1ncsc1-c1ccc(CNC(=O)C2CC(O)CN2C(=O)C(NC(=O)CCOCCOCCOCCNC(=O)OCCCC2OC3OC4(C)CCC5C(C)CCC(C2C)C35OO4)C(C)(C)C)cc1` (stereo not drawn) [CL-3] it is 0.52 µM.
Regarding `Cc1ncsc1-c1ccc(CNC(=O)C2CC(O)CN2C(=O)C(NC(=O)CCNC(=O)CCC(=O)NN2C(=O)C(C)C3CCC(C)C4CCC5(C)OOC43C2O5)C(C)(C)C)cc1` (stereo not drawn) [CL-40], in the assay with MV4-11 cells, the IC50 worked out at 6.08 µM.
Compound `Cc1ncsc1-c1ccc(CNC(=O)C2CC(O)CN2C(=O)C(NC(=O)CCNC(=O)OCCCC2OC3OC4(C)CCC5C(C)CCC(C2C)C35OO4)C(C)(C)C)cc1` (stereo not drawn) [CL-8] came in with an IC50 with MV4-11 cells of 0.24 µM. In the assay on U937 leukemia cells, the “inhibition towards the growth of U937 leukemia cells in vivo” value was “strong inhibition”, the “The proportion of human leukemia cells in bone marrow of mice” value is listed as 0.38 ± 0.08, the “The proportion of human leukemia cells in peripheral blood of mice” value turned out to be 0.96 ± 0.16 and the “The proportion of human leukemia cells in spleen of mice” value stood at 11.39 ± 21.3.
In the assay on MV4-11 cells, `Cc1ncsc1-c1ccc(CNC(=O)C2CC(O)CN2C(=O)C(NC(=O)CCNC(=O)OCCC2OC3OC4(C)CCC5C(C)CCC(C2C)C35OO4)C(C)(C)C)cc1` (stereo not drawn) [CL-24] registered an IC50 of 0.5 µM.
`Cc1ncsc1-c1ccc(CNC(=O)C2CC(O)CN2C(=O)C(NC(=O)Cc2ccc(CNC(=O)CC3OC4OC5(C)CCC6C(C)CCC(C3C)C46OO5)cc2)C(C)(C)C)cc1` (stereo not drawn) [CL-15]: the IC50 in the assay on MV4-11 cells is 0.52 µM.
`Cc1ncsc1-c1ccc(CNC(=O)C2CC(O)CN2C(=O)C(NC(=O)CCCNC(=O)OCCC2OC3OC4(C)CCC5C(C)CCC(C2C)C35OO4)C(C)(C)C)cc1` (stereo not drawn) [CL-21]: the midpoint of inhibition in the assay on MV4-11 cells, the IC50, lay at 0.84 µM.
The same measure, in the same setting: then `Cc1ncsc1-c1ccc(CNC(=O)C2CC(O)CN2C(=O)C(NC(=O)CCOCCNC(=O)C23CC4CC(C2)C2(OOC5(CCCCC5)O2)C(C4)C3)C(C)(C)C)cc1` (stereo not drawn) [CL-25], with 5.5 µM.
Still for that read-out and setting: then `Cc1ncsc1-c1ccc(CNC(=O)C2CC(O)CN2C(=O)C(NC(=O)CCOCCOCCOCCNC(=O)C23CC4CC(C2)C2(OOC5(CCCCC5)O2)C(C4)C3)C(C)(C)C)cc1` (stereo not drawn) [CL-27], with 12 µM; and `Cc1ncsc1-c1ccc(CNC(=O)C2CC(O)CN2C(=O)C(NC(=O)CNC(=O)CC2OC3OC4(C)CCC5C(C)CCC(C2C)C35OO4)C(C)(C)C)cc1` (stereo not drawn) [CL-12], with 1.1 µM; and `Cc1ncsc1-c1ccc(CNC(=O)C2CC(O)CN2C(=O)C(NC(=O)CCOCCOCCNC(=O)C23CC4CC(C2)C2(OOC5(CCCCC5)O2)C(C4)C3)C(C)(C)C)cc1` (stereo not drawn) [CL-26], with 8.1 µM.
On the same count and under the same terms, the figure for `Cc1ncsc1-c1ccc(CNC(=O)C2CC(O)CN2C(=O)C(NC(=O)CCOCCOCCNC(=O)CC2OC3OC4(C)CCC5C(C)CCC(C2C)C35OO4)C(C)(C)C)cc1` (stereo not drawn) [CL-10] is 44.5 µM; for `Cc1ncsc1-c1ccc(CNC(=O)C2CC(O)CN2C(=O)C(NC(=O)CNC(=O)C23CC4CC(C2)C2(OOC5(CCCCC5)O2)C(C4)C3)C(C)(C)C)cc1` (stereo not drawn) [CL-28] it is 9.72 µM; for `Cc1ncsc1-c1ccc(CNC(=O)C2CC(O)CN2C(=O)C(NC(=O)CNC(=O)OCCCC2OC3OC4(C)CCC5C(C)CCC(C2C)C35OO4)C(C)(C)C)cc1` (stereo not drawn) [CL-4] it is 0.91 µM.
Consider `C[C@H]1[C@H](OC(=O)CCC(=O)O)O[C@@H]2O[C@@]3(C)CC[C@H]4[C@H](C)CC[C@@H]1[C@@]24OO3` [artesunate, reference compound], for which, in the assay on U937 leukemia cells, the “The proportion of human leukemia cells in bone marrow of mice” value stood at 91.28 ± 2.20, the “The proportion of human leukemia cells in peripheral blood of mice” value is listed as 21.92 ± 2.58 and the “The proportion of human leukemia cells in spleen of mice” value is on record as 49.77 ± 9.28.
`Cc1ncsc1-c1ccc(CNC(=O)C2CC(O)CN2C(=O)C(NC(=O)Cc2ccc(CNC(=O)OCCC3OC4OC5(C)CCC6C(C)CCC(C3C)C46OO5)cc2)C(C)(C)C)cc1` (stereo not drawn) [CL-23] came in with an IC50 with MV4-11 cells of 6.2 µM.
In turn, `Cc1ncsc1-c1ccc(CNC(=O)C2CC(O)CN2C(=O)C(NC(=O)CCCCNC(=O)OCCC2OC3OC4(C)CCC5C(C)CCC(C2C)C35OO4)C(C)(C)C)cc1` (stereo not drawn) [CL-22] registered an IC50 in the assay with MV4-11 cells of 0.2 µM.
The same measure, in the same setting: then `Cc1ncsc1-c1ccc(CNC(=O)C2CC(O)CN2C(=O)C(NC(=O)CCCNC(=O)C23CC4CC(C2)C2(OOC5(CCCCC5)O2)C(C4)C3)C(C)(C)C)cc1` (stereo not drawn) [CL-29], with 3.5 µM; and `Cc1ncsc1-c1ccc(CNC(=O)C2CC(O)CN2C(=O)C(NC(=O)CCCNC(=O)OCCCC2OC3OC4(C)CCC5C(C)CCC(C2C)C35OO4)C(C)(C)C)cc1` (stereo not drawn) [CL-5], with 0.55 µM.
In the assay on MV4-11 cells, `Cc1ncsc1-c1ccc(CNC(=O)C2CC(O)CN2C(=O)C(NC(=O)CCOCCOCCNC(=O)OCCCC2OC3OC4(C)CCC5C(C)CCC(C2C)C35OO4)C(C)(C)C)cc1` (stereo not drawn) [CL-2] gave an IC50 of 0.59 µM.
